Laboratory results: PubChem BioAssay (NCI)
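Each compound was tested at five concentrations against cells in 96-well plates for 48 hours. Definition used: TGI = concentration required for complete inhibition of growth.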

Tests used:
Assay in all cases: NCI tumour cell line growth inhibition, 48 h
[1] = system: NCI-H226 lung
[2] = system: OVCAR-3 ovarian
[3] = system: HOP-62 NSCLC
[4] = system: HOP-92 NSCLC
[5] = system: NCI/ADR-RES ovarian
[6] = system: DU-145 prostate
[7] = system: MDA-N
[8] = system: SR leukemia
[9] = system: RXF 393 renal
[10] = system: KM12 colon
[11] = system: SF-268 CNS
[12] = system: M14 melanoma
[13] = system: IGROV1 ovarian
[14] = system: EKVX NSCLC
[15] = system: SN12C renal
[16] = system: RPMI-8226 leukemia
[17] = system: HS 578T breast
[18] = system: NCI-H460 lung
[19] = system: OVCAR-4 ovarian
[20] = system: COLO 205 colon
[21] = system: SK-MEL-2 melanoma
[22] = system: UACC-62 melanoma
[23] = system: SK-MEL-28 melanoma
[24] = system: NCI-H522 lung
[25] = system: MDA-MB-435
[26] = system: SK-OV-3 ovarian
[27] = system: A498 renal
[28] = system: UACC-257 melanoma
[29] = system: SW-620 colon
[30] = system: HCC-2998 colon
[31] = system: A549 NSCLC
[32] = system: LOX IMVI melanoma
[33] = system: SNB-75 CNS
[34] = system: NCI-H23 lung
[35] = system: T-47D breast
[36] = system: OVCAR-5 ovarian
[37] = system: ACHN renal
[38] = system: MDA-MB-231 breast
[39] = system: PC-3 prostate
[40] = system: MCF7 breast
[41] = system: BT-549 breast
[42] = system: U251 CNS
[43] = system: SK-MEL-5 melanoma
[44] = system: TK-10 renal
[45] = system: SF-295 CNS
[46] = system: SF-539 CNS
[47] = system: HCT-15 colon
[48] = system: MALME-3M melanoma
[49] = system: SNB-19 CNS
[50] = system: K-562 leukemia
[51] = system: 786-0 renal
[52] = system: UO-31 renal
[53] = system: HCT-116 colon
[54] = system: OVCAR-8 ovarian
[55] = system: CCRF-CEM leukemia
[56] = system: MOLT-4 leukemia
[57] = system: HL-60(TB) leukemia
[58] = system: HT29 colon
[59] = system: CAKI-1 renal

## Nc1ncnc2c1ncn2[C@@H]1C[C@H](NO)[C@@H](O)[C@H]1O
[1]
  TGI: > 100 µM
[2]
  TGI: > 100 µM
[3]
  TGI: > 100 µM
[4]
  TGI: > 100 µM
[5]
  TGI: > 100 µM
[6]
  TGI: > 100 µM
[7]
  TGI: > 100 µM
[8]
  TGI: > 100 µM
[9]
  TGI: > 100 µM
[10]
  TGI: > 100 µM
[11]
  TGI: > 100 µM
[12]
  TGI: > 100 µM
[13]
  TGI: > 100 µM
[14]
  TGI: > 100 µM
[15]
  TGI: > 100 µM
[16]
  TGI: > 100 µM
[17]
  TGI: > 100 µM
[18]
  TGI: > 100 µM
[19]
  TGI: > 100 µM
[20]
  TGI: > 100 µM
[21]
  TGI: > 100 µM
[22]
  TGI: > 100 µM
[23]
  TGI: > 100 µM
[24]
  TGI: > 100 µM
[25]
  TGI: > 100 µM
[26]
  TGI: > 100 µM
[27]
  TGI: > 100 µM
[28]
  TGI: > 100 µM
[29]
  TGI: > 100 µM
[30]
  TGI: > 100 µM
[31]
  TGI: > 100 µM
[32]
  TGI: > 100 µM
[33]
  TGI: > 100 µM
[34]
  TGI: > 100 µM
[35]
  TGI: > 100 µM
[36]
  TGI: > 100 µM
[37]
  TGI: > 100 µM
[38]
  TGI: > 100 µM
[39]
  TGI: > 100 µM
[40]
  TGI: > 100 µM
[41]
  TGI: > 100 µM
[42]
  TGI: > 100 µM
[43]
  TGI: > 100 µM
[44]
  TGI: > 100 µM
[45]
  TGI: > 100 µM
[46]
  TGI: > 100 µM
[47]
  TGI: > 100 µM
[48]
  TGI: > 100 µM
[49]
  TGI: > 100 µM
[50]
  TGI: > 100 µM
[51]
  TGI: > 100 µM
[52]
  TGI: > 100 µM
[53]
  TGI: > 100 µM
[54]
  TGI: > 100 µM
[55]
  TGI: > 100 µM
[56]
  TGI: > 100 µM

## Cc1ccc(C2=Nn3c(nc4sc5c(c4c3=O)CCCC5)SC2)cc1
[57]
  TGI: > 100 µM
[1]
  TGI: > 100 µM
[2]
  TGI: > 100 µM
[3]
  TGI: > 100 µM
[4]
  TGI: > 100 µM
[5]
  TGI: > 100 µM
[6]
  TGI: > 100 µM
[7]
  TGI: > 100 µM
[8]
  TGI: > 100 µM
[58]
  TGI: > 100 µM
[9]
  TGI: > 100 µM
[10]
  TGI: > 100 µM
[11]
  TGI: > 100 µM
[13]
  TGI: > 100 µM
[14]
  TGI: > 100 µM
[15]
  TGI: > 100 µM
[16]
  TGI: > 100 µM
[17]
  TGI: > 100 µM
[18]
  TGI: > 100 µM
[19]
  TGI: > 100 µM
[20]
  TGI: > 100 µM
[22]
  TGI: > 100 µM
[23]
  TGI: > 100 µM
[24]
  TGI: > 100 µM
[25]
  TGI: > 100 µM
[26]
  TGI: > 100 µM
[27]
  TGI: > 100 µM
[28]
  TGI: > 100 µM
[29]
  TGI: > 100 µM
[30]
  TGI: > 100 µM
[31]
  TGI: > 100 µM
[32]
  TGI: > 100 µM
[33]
  TGI: > 100 µM
[34]
  TGI: > 100 µM
[35]
  TGI: > 100 µM
[36]
  TGI: > 100 µM
[37]
  TGI: > 100 µM
[38]
  TGI: > 100 µM
[39]
  TGI: > 100 µM
[40]
  TGI: > 100 µM
[41]
  TGI: > 100 µM
[42]
  TGI: > 100 µM
[43]
  TGI: > 100 µM
[44]
  TGI: > 100 µM
[45]
  TGI: > 100 µM
[59]
  TGI: > 100 µM
[46]
  TGI: > 100 µM
[47]
  TGI: > 100 µM
[48]
  TGI: > 100 µM
[50]
  TGI: > 100 µM
[51]
  TGI: > 100 µM
[52]
  TGI: > 100 µM
[53]
  TGI: > 100 µM
[54]
  TGI: > 100 µM
[55]
  TGI: > 100 µM
[56]
  TGI: > 100 µM

## CC(=O)c1c(C)cc2cccc(OC3OC(CO)C(O)C(O)C3O)c2c1O (stereo not drawn) (tested in a mixture with another compound)
[57]
  TGI: > 100 µM
[1]
  TGI: > 100 µM
[2]
  TGI: > 100 µM
[3]
  TGI: > 100 µM
[4]
  TGI: > 100 µM
[5]
  TGI: > 100 µM
[6]
  TGI: > 100 µM
[7]
  TGI: > 100 µM
[8]
  TGI: > 100 µM
[58]
  TGI: > 100 µM
[9]
  TGI: > 100 µM
[10]
  TGI: > 100 µM
[11]
  TGI: > 100 µM
[12]
  TGI: > 100 µM
[13]
  TGI: > 100 µM
[14]
  TGI: > 100 µM
[15]
  TGI: > 100 µM
[16]
  TGI: > 100 µM
[17]
  TGI: > 100 µM
[18]
  TGI: > 100 µM
[19]
  TGI: > 100 µM
[20]
  TGI: > 100 µM
[21]
  TGI: > 100 µM
[22]
  TGI: > 100 µM
[23]
  TGI: > 100 µM
[24]
  TGI: > 100 µM
[25]
  TGI: > 100 µM
[26]
  TGI: > 100 µM
[27]
  TGI: > 100 µM
[28]
  TGI: > 100 µM
[29]
  TGI: > 100 µM
[30]
  TGI: > 100 µM
[31]
  TGI: > 100 µM
[32]
  TGI: > 100 µM
[33]
  TGI: > 100 µM
[34]
  TGI: > 100 µM
[35]
  TGI: > 100 µM
[36]
  TGI: > 100 µM
[37]
  TGI: > 100 µM
[38]
  TGI: > 100 µM
[39]
  TGI: > 100 µM
[40]
  TGI: > 100 µM
[41]
  TGI: > 100 µM
[42]
  TGI: > 100 µM
[43]
  TGI: > 100 µM
[44]
  TGI: > 100 µM
[45]
  TGI: > 100 µM
[59]
  TGI: > 100 µM
[46]
  TGI: > 100 µM
[47]
  TGI: > 100 µM
[48]
  TGI: > 100 µM
[49]
  TGI: > 100 µM
[50]
  TGI: > 100 µM
[51]
  TGI: > 100 µM
[53]
  TGI: > 100 µM
[54]
  TGI: > 100 µM
[55]
  TGI: > 100 µM
[56]
  TGI: > 100 µM

## O=C(c1ccc(Cl)c(Cl)c1)N(C(=O)N1CCN(c2ccccc2)CC1)S(=O)(=O)c1ccccc1
[57]
  TGI: > 100 µM
[1]
  TGI: 87.9 µM
[2]
  TGI: > 100 µM
[3]
  TGI: > 100 µM
[4]
  TGI: 84.4 µM
[5]
  TGI: > 100 µM
[6]
  TGI: > 100 µM
[7]
  TGI: 62.8 µM
[8]
  TGI: > 100 µM
[58]
  TGI: > 100 µM
[9]
  TGI: > 100 µM
[10]
  TGI: > 100 µM
[11]
  TGI: > 100 µM
[12]
  TGI: > 100 µM
[14]
  TGI: > 100 µM
[15]
  TGI: > 100 µM
[16]
  TGI: > 100 µM
[17]
  TGI: > 100 µM
[18]
  TGI: > 100 µM
[19]
  TGI: 65.6 µM
[20]
  TGI: > 100 µM
[21]
  TGI: 48.2 µM
[22]
  TGI: > 100 µM
[23]
  TGI: > 100 µM
[24]
  TGI: 39.7 µM
[25]
  TGI: > 100 µM
[26]
  TGI: 79.6 µM
[27]
  TGI: > 100 µM
[28]
  TGI: > 100 µM
[29]
  TGI: > 100 µM
[30]
  TGI: > 100 µM
[31]
  TGI: > 100 µM
[32]
  TGI: 40.5 µM
[33]
  TGI: > 100 µM
[34]
  TGI: 96.2 µM
[35]
  TGI: > 100 µM
[36]
  TGI: 64.5 µM
[37]
  TGI: > 100 µM
[38]
  TGI: > 100 µM
[39]
  TGI: 93.5 µM
[40]
  TGI: > 100 µM
[41]
  TGI: > 100 µM
[42]
  TGI: 62.9 µM
[43]
  TGI: 84.7 µM
[44]
  TGI: > 100 µM
[45]
  TGI: > 100 µM
[59]
  TGI: > 100 µM
[46]
  TGI: > 100 µM
[47]
  TGI: 59.1 µM
[48]
  TGI: > 100 µM
[49]
  TGI: > 100 µM
[50]
  TGI: > 100 µM
[51]
  TGI: > 100 µM
[52]
  TGI: 50.3 µM
[53]
  TGI: 86.8 µM
[54]
  TGI: 83.5 µM
[55]
  TGI: > 100 µM
[56]
  TGI: 41.8 µM
